Source: patent US5840895A, “Triazole intermediates for tricyclic benzazepine and benzothiazepine derivatives” (Meiji Seika Kabushiki Kaisha, priority 1993, dated 1998)
Where two headings read alike, the source gives them in different places.

What was measured:
[1] = test system: histamine releasing reaction; experiment: Test of suppressing histamine releasing reaction (abdominal cavity cells of rats sensitised with anti-DNP-As serum, stimulated with DNP-As); assay type: cell-based, rat (male Wister); settings: Rattus norvegicus; cells 10^5 cell/ml stimulated with 1 μg/ml DNP-As; test compounds 10^-5 -10^-10 M; read-out: IC50 (suppression of histamine releasing reaction)
Experimental: Test of suppressing histamine releasing reaction
Rat anti-dinitrophenylated ascaris protein (referred to hereinafter as DNP-As) serum was prepared according to the method described by Tada, T. and Okumura, K., J. Immun., 106 (4), 1971. Briefly, 1×10^10 of inviable pertussis and 1 mg of DNP-As were administered subcutaneously to the paw of female Brown Norway rats having a body weight of 200 g. After five days, 0.5 mg of DNP-As was further administered intramuscularly to the rear of the animals. Blood samples were taken after three days of the administration to prepare anti-serum.
A 1 ml portion of the serum diluted four times with physiological saline was administered intraperitoneally to male Wister rats. After two days, abdominal cavity was rinsed with phosphate buffer to recover the cells within the abdominal cavity. After the cell concentration was adjusted to 10^5 cell/ml, the cells were stimulated with 1 μg/ml of DNP-As. The amount of histamine released into the supernatant was measured according to the method described by Shore, P. A., Burkhalter, A. H. and Chon, V. H. Jr., J. Pharm. Exp. Ther., 127, 182-186 (1959).
A dose for suppressing 50% of the histamine releasing reaction, i.e., IC50 value, was calculated from the amounts of histamine released in the group treated with the test compounds in the molar concentrations (M) of 10^-5 -10^-10 and in the control group. The IC50 value as the suppressing effect of the drugs is shown in Table 6 with the IC50 value of sodium chromoglycic acid selected as the control compound.

[2] = test system: allergic edema reaction at paw; experiment: Test for suppressing immediate and delayed allergic reaction (allergic edema reaction at paw, DNP-OA); assay type: in vivo, rat (male Wister); settings: Rattus norvegicus, oral; for inhibition in vivo at 30 mg/kg: dose: 30 mg/kg of body weight
Experimental: Test for suppressing immediate and delayed allergic reaction
1×10^10 of inviable pertussis and 1 mg of dinitrophenylated ovalbumin (DNP-OA) were administered subcutaneously to the three paws except the right hind paw of male Wister rats having a body weight of 200 g. After 10 days, 5 μg of DNP-OA was further administered subcutaneously to the right hind paw of the animals to induce the allergic edema reaction at paw. The allergy suppressing effect of the test compounds was examined with reference to the edema volumes after 30 minutes and 8 hours of the induction of the allergic reaction as the immediate and delayed allergic reactions, respectively.
[…] On the other hand, only a solution of 0.25% Tween 80 was orally administered to rats as the untreated control, and 100 mg/kg of sodium chromoglycate subcutaneously or orally to rats as the positive control.
The rate of suppressing the allergic edema reaction at paw was calculated from the following equation.
Suppression rate of the allergic edema reaction at paw
A is an average edema volume in the control, and
B is an average edema volume in the drug treated group.

[3] = 0.5 h, 30 minutes after induction, read-out: Suppressing Rate, Immediate Reaction
[4] = 8 hours after induction, read-out: Suppressing Rate, Slow reaction
[5] = 0.5 h, edema volume 30 minutes after induction, read-out: Suppressing Rate, Immediate Reaction
[6] = edema volume 8 hours after induction, read-out: Suppressing Rate, Slow reaction

Structure (SMILES): N#CC=Cc1ccc2c(=O)c3[nH]nnc3c(=O)[nH]c2c1 (mixture of isomers) [Example 19, 3:1 mixture of 7-(2-cyano-(E)-ethenyl)-4(5H),10-dioxo-1H-1,2,3-triazolo[4,5-c][l]benzazepine and 7-(2-cyano-(Z)-ethenyl)-4(5H),10-dioxo-1H-1,2,3-triazolo[4,5-c][l]benzazepine]
- IC50 [1]: 4.3 nM

Structure (SMILES): O=c1[nH]c2ccccc2c(=O)c2[nH]nnc12 [Example 1, 4(5H),10-dioxo-1H-1,2,3-triazolo[4,5-c][l]benzazepine]
- IC50 [1]: 12 nM
- inhibition in vivo at 30 mg/kg [2, 3]: 56.4%
- inhibition in vivo at 30 mg/kg [2, 4]: 24.5%

Structure (SMILES): Cc1cccc2c(=O)c3[nH]nnc3c(=O)[nH]c12 [Example 3, 6-methyl-4(5H),10-dioxo-1H-1,2,3-triazolo[4,5-c][l]benzazepine]
- IC50 [1]: 37 nM
- inhibition in vivo at 30 mg/kg [2, 3]: 46.6%
- inhibition in vivo at 30 mg/kg [2, 4]: 24.2%

Structure (SMILES): Cc1ccc2c(=O)c3[nH]nnc3c(=O)[nH]c2c1 [Example 4, 7-methyl-4(5H),10-dioxo-1H-1,2,3-triazolo[4,5-c][l]benzazepine]
- IC50 [1]: 2.3 nM
- inhibition in vivo at 30 mg/kg [2, 3]: 70.5%
- inhibition in vivo at 30 mg/kg [2, 4]: 57.7%

Structure (SMILES): Cc1ccc2[nH]c(=O)c3nn[nH]c3c(=O)c2c1 [Example 5, 8-methyl-4(5H),10-dioxo-1H-1,2,3-triazolo[4,5-c][l]benzazepine]
- IC50 [1]: 13 nM
- inhibition in vivo at 30 mg/kg [2, 3]: 48.7%
- inhibition in vivo at 30 mg/kg [2, 4]: 28.9%

Structure (SMILES): CCc1ccc2c(=O)c3[nH]nnc3c(=O)[nH]c2c1 [Example 12, 7-ethyl-4(5H),10-dioxo-1H-1,2,3-triazolo[4,5-c][l]benzazepine]
- IC50 [1]: 6.2 nM
- inhibition in vivo at 10 mg/kg [2, 5]: 59%
- inhibition in vivo at 10 mg/kg [2, 6]: 53%

Structure (SMILES): COC(=O)/C=C/c1ccc2c(=O)c3[nH]nnc3c(=O)[nH]c2c1 [Example 16, 7-(2-methoxycarbonyl-(E)-ethenyl)-4(5H),10-dioxo-1H-1,2,3-triazolo[4,5-c][l]benzazepine]
- IC50 [1]: 2.6 nM
- inhibition in vivo at 10 mg/kg [2, 5]: 79%
- inhibition in vivo at 10 mg/kg [2, 6]: 80%

Structure (SMILES): COC(=O)CCc1ccc2c(=O)c3[nH]nnc3c(=O)[nH]c2c1 [Example 17, 7-(2-methoxycarbonylethyl)-4(5H),10-dioxo-1H-1,2,3-triazolo[4,5-c][l]benzazepine]
- IC50 [1]: 4.1 nM

Structure (SMILES): O=C(O)/C=C/c1ccc2c(=O)c3[nH]nnc3c(=O)[nH]c2c1 [Example 18]
- IC50 [1]: 4.5 nM

Structure (SMILES): CC(=O)/C=C/c1ccc2c(=O)c3[nH]nnc3c(=O)[nH]c2c1 [Example 20, 7-(3-oxo-(E)-butenyl)-4(5H),10-dioxo-1H-1,2,3-triazolo[4,5-c][l]benzazepine]
- IC50 [1]: 2.9 nM
- inhibition in vivo at 10 mg/kg [2, 5]: 63%
- inhibition in vivo at 10 mg/kg [2, 6]: 51%

Structure (SMILES): CCOc1ccc2c(=O)c3[nH]nnc3c(=O)[nH]c2c1 [Example 27, 7-ethoxy-4(5H),10-dioxo-1H-1,2,3-triazolo[4,5-c][l]benzazepine]
- IC50 [1]: 8.6 nM
- inhibition in vivo at 10 mg/kg [2, 5]: 48%
- inhibition in vivo at 10 mg/kg [2, 6]: 55%

Structure (SMILES): CC(=O)COc1ccc2c(=O)c3[nH]nnc3c(=O)[nH]c2c1 [Example 34, 7-acetonyloxy-4(5H),10-dioxo-1H-1,2,3-triazolo[4,5-c][l]benzazepine]
- IC50 [1]: 3.5 nM

Structure (SMILES): COc1ccc(C(=O)COc2ccc3c(=O)c4[nH]nnc4c(=O)[nH]c3c2)cc1 [Example 37, 7-(4-methoxyphenacyloxy)-4(5H),10-dioxo-1H-1,2,3-triazolo[4,5-c][l]benzazepine]
- IC50 [1]: 7.5 nM

Structure (SMILES): Cc1cc2[nH]c(=O)c3nn[nH]c3c(=O)c2cc1C [Example 44, 7,8-dimethyl-4(5H),10-dioxo-1H-1,2,3-triazolo[4,5-c][l]benzazepine]
- IC50 [1]: 8.5 nM

Structure (SMILES): COc1cc2c(=O)c3[nH]nnc3c(=O)[nH]c2cc1C [Example 45, 8-methoxy-7-methyl-4(5H),10-dioxo-1H-1,2,3-triazolo[4,5-c][l]benzazepine]
- IC50 [1]: 2.9 nM

Structure (SMILES): Cc1ccc2c(=O)c3[nH]nnc3c(=O)[nH]c2c1 [Example 46, 7-methyl-4(5H),10-dioxo-1H-1,2,3-triazolo[4,5-c][l]benzazepine]
- inhibition in vivo at 10 mg/kg [2, 5]: 64%
- inhibition in vivo at 10 mg/kg [2, 6]: 68%

Structure (SMILES): COC(=O)/C(C)=C/c1ccc2c(=O)c3[nH]nnc3c(=O)[nH]c2c1 [Example 50]
- IC50 [1]: 3.6 nM

Structure (SMILES): COc1ccc(C(=O)/C=C/c2ccc3c(=O)c4[nH]nnc4c(=O)[nH]c3c2)cc1 [Example 51, 7-(2-(4-methoxybenzoyl)-(E)-ethenyl)-4(5H1), 10-dioxo-1H-1,2,3-triazolo[4,5-c][l]benzazepine]
- IC50 [1]: 7.8 nM

Structure (SMILES): O=C(/C=C/c1ccc2c(=O)c3[nH]nnc3c(=O)[nH]c2c1)NCc1ccccc1 [Example 53, 7-(2-(N-benzylcarbamoyl)-(E)-ethenyl)-4(5H),10-dioxo-1H-1,2,3-triazolo[4,5-c][l]benzazepine]
- IC50 [1]: 4.4 nM

Structure (SMILES): O=C(/C=C/c1ccc2c(=O)c3[nH]nnc3c(=O)[nH]c2c1)NCc1ccccn1 [Example 54, 4(5H),10-dioxo-7-(2-(N-(2-pyridylmethyl)carbamoyl)-(E)-ethenyl)-1H-1,2,3-triazolo[4,5-c][l]benzazepine]
- IC50 [1]: 3.6 nM

Structure (SMILES): O=C(/C=C/c1ccc2c(=O)c3[nH]nnc3c(=O)[nH]c2c1)Nc1nn[nH]n1 [Example 56, 4(5H),10-dioxo-7-(2-(N-(1H-tetrazol-5-yl)carbamoyl)-(E)-ethenyl)-1H-1,2,3-triazolo[4,5-c][l]benzazepine]
- IC50 [1]: 4.7 nM

Structure (SMILES): O=c1[nH]c2cc(C=NO)ccc2c(=O)c2[nH]nnc12 [Example 57, 7-(hydroxyimino)methyl-4(5H),10-dioxo-1H-1,2,3-triazolo[4,5-c][l]benzazepine]
- IC50 [1]: 2.4 nM

Structure (SMILES): CON=Cc1ccc2c(=O)c3[nH]nnc3c(=O)[nH]c2c1 [Example 58, 7-(methoxyimino)methyl-4(5H),10-dioxo-1H-1,2,3-triazolo[4,5-c][l]benzazepine]
- IC50 [1]: 8.1 nM

Structure (SMILES): CS(=O)(=O)NCc1ccc2c(=O)c3[nH]nnc3c(=O)[nH]c2c1 [Example 68, 7-(N-methanesulfonylaminomethyl)-4(5H),10-dioxo-1H-1,2,3-triazolo[4,5-c][l]benzazepine]
- IC50 [1]: 3.5 nM

Structure (SMILES): O=c1[nH]c2cc(CNS(=O)(=O)c3ccc(F)cc3)ccc2c(=O)c2[nH]nnc12 [Example 70, 7-(N-(4-fluorobenzenesulfonyl)aminomethyl)-4(5H),10-dioxo-1H-1,2,3-triazolo[4,5-c][l]benzazepine]
- IC50 [1]: 6.1 nM

Structure (SMILES): COc1ccccc1C(=O)COc1ccc2c(=O)c3[nH]nnc3c(=O)[nH]c2c1 [Example 73, 7-(2-methoxyphenacyloxy)-4(5H),10-dioxo-1H-1,2,3-triazolo[4,5-c][l]benzazepine]
- IC50 [1]: 4.8 nM

Structure (SMILES): O=C(COc1ccc2c(=O)c3[nH]nnc3c(=O)[nH]c2c1)c1ccc(Cl)cc1 [Example 74, 7-(4-chlorophenacyloxy)-4(5H),10-dioxo-1H-1,2,3-triazolo[4,5-c][l]benzazepine]
- IC50 [1]: 4.5 nM

Structure (SMILES): O=c1[nH]c2cc(OCCCOc3ccccc3)ccc2c(=O)c2[nH]nnc12 [Example 75, 4(5H),10-dioxo-7-(3-phenoxypropoxy)-IH-1,2,3-triazolo[4,5-c][l]benzazepine]
- IC50 [1]: 4 nM

Structure (SMILES): O=c1[nH]c2cc(OCCOc3ccccc3)ccc2c(=O)c2[nH]nnc12 [Example 78, 4(5H),10-dioxo-7-(2-phenoxyethoxy)-1H-1,2,3-triazolo[4,5-c][l]benzazepine]
- IC50 [1]: 3.6 nM

Structure (SMILES): O=C(CCc1ccccc1)COc1ccc2c(=O)c3[nH]nnc3c(=O)[nH]c2c1 [Example 79, 4(5H),10-dioxo-7-(2-oxo-4-phenylbutoxy)-1H-1,2,3-triazolo[4,5-c][l]benzazepine]
- IC50 [1]: 3.6 nM

Structure (SMILES): O=c1[nH]c2cc(OCC(O)CCc3ccccc3)ccc2c(=O)c2[nH]nnc12 (centres unmarked) [Example 80, 7-(2-hydroxy-4-phenylbutoxy)-4(5H),10-dioxo-1H-1,2,3-triazolo[4,5-c][l]benzazepine]
- IC50 [1]: 4.7 nM

Structure (SMILES): O=c1[nH]c2cc(OCCCN3CCN(Cc4ccccc4)CC3)ccc2c(=O)c2[nH]nnc12 [Example 81, 7-(3-(4-benzyl-1-piperazinyl)propoxy)-4(5H),10-dioxo-1H-1,2,3-triazolo[4,5-c][l]benzazepine]
- IC50 [1]: 3.8 nM

Structure (SMILES): COc1ccccc1C(=O)COc1ccc2[nH]c(=O)c3nn[nH]c3c(=O)c2c1 [Example 87, 8-(2-methoxyphenacyloxy)-4(5H),10-dioxo-1H-1,2,3-triazolo[4,5-c][l]benzazepine]
- IC50 [1]: 7.4 nM
